In one test the target is AII receptor. Nature of the test: Angiotensin II receptor binding (displacement of 3H-AII). The note with it: read-out: Angiotensin II Receptor Binding IC50, rat adrenal cortical microsomes, 2 nM 3H-AII, 1 hour, room temperature. Put shortly:
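The receptor source was rat adrenal cortical microsomes in Tris buffer, incubated with 2 nM ³H-AII plus or minus test compound for 1 h at room temperature. Bound and free ligand were separated by rapid filtration on glass-fibre filters. Filter-bound ³H-AII was counted by scintillation.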

A further test deals with Renal Hypertensive Rats. Nature of the test: Antihypertensive effects in renal hypertensive rats. The class given is in vivo. The note with it: Rattus norvegicus; for minimal effective dose at 10 mg/kg / minimal effective dose at 100 mg/kg: Table 25; for minimal effective dose at 10 mg/kg / minimal effective dose at 3 mg/kg: intravenous; for minimal effective dose at 10 mg/kg: 10 mg/kg or less; for minimal effective dose at 100 mg/kg / minimal effective dose at 30 mg/kg: oral; for minimal effective dose at 100 mg/kg: 100 mg/kg or less; for minimal effective dose at 3 mg/kg / minimal effective dose at 30 mg/kg: Table 26. Put shortly: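 Renal hypertensive rats (renin-driven AII elevation) dosed orally at 100 mg/kg and/or i.v. via jugular cannula at 10 mg/kg; a second set used 30 mg/kg oral and 3 mg/kg i.v. Arterial pressure recorded continuously via carotid cannula and compared with pretreatment levels.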

[1] abbreviates: Table 25, tested as sodium salt.

Read-outs that look alike come from different tables or passages of the source.

On to `CCCCc1nc(Cl)c(CCC(=O)N2CCOCC2)n1Cc1ccc(NC(=O)c2ccccc2NS(=O)(=O)C(F)(F)F)cc1` [Example 250], for which the IC50 at AII receptor (Table 25) was 120 nM. In the test on Renal Hypertensive Rats, the minimal effective dose at 10 mg/kg was less than 10 mg/kg and the minimal effective dose at 100 mg/kg was more than 100 mg/kg.
With `CCCCc1nc(Cl)c(C=NNC2=NCCN2)n1Cc1cccc(-c2ccccc2-c2nnn[nH]2)c1` [Example 327D], on AII receptor (Table 26), the IC50 stood at 5200 nM. In the test on Renal Hypertensive Rats, this molecule registered a minimal effective dose at 3 mg/kg of more than 3 mg/kg and a minimal effective dose at 30 mg/kg of more than 30 mg/kg.
`CCCCc1nc(Cl)c(CCC(=O)N2CCOCC2)n1Cc1ccc(NC(=O)c2ccccc2C(=O)O)cc1` [Example 249]: the half-maximal inhibitory concentration (IC50) on AII receptor (Table 25) amounted to 72 nM. Further, in the test on Renal Hypertensive Rats, the minimal effective dose at 10 mg/kg was less than 10 mg/kg and the minimal effective dose at 100 mg/kg is more than 100 mg/kg.
`CCCCc1nc(CO)c(Cl)n1Cc1ccc(-c2occc2C(=O)O)cc1` (single isomer, unassigned) [Example 179, 2-n-butyl-1-[4-(3-carboxyfuran-2-yl)benzyl]-5-chloro-4-(hydroxymethyl)imidazole]: the IC50 on AII receptor (Table 25) is 4400 nM. In the test with Renal Hypertensive Rats, this molecule displayed a minimal effective dose at 10 mg/kg of less than 10 mg/kg and a minimal effective dose at 100 mg/kg of more than 100 mg/kg.
Take `CCCCc1nc([N+](=O)[O-])c(CO)n1Cc1ccc(-c2ccccc2C(=O)O)cc1` [Example 91, 1-[(2'-carboxybiphenyl-4-yl)-methyl]-2-butyl-5-hydroxymethyl-4-nitroimidazole]: at AII receptor (Table 25), the IC50 was 260 nM. In the test with Renal Hypertensive Rats, this molecule gave a minimal effective dose at 10 mg/kg of less than 10 mg/kg and a minimal effective dose at 100 mg/kg of more than 100 mg/kg.
Regarding `CCCc1nc(-c2c(F)c(F)c(F)c(F)c2F)c(CO)n1Cc1ccc(-c2ccccc2C(=O)O)cc1` [Example 124J], on AII receptor (Table 26), the IC50 amounted to 680 nM. In the test with Renal Hypertensive Rats, this molecule returned a minimal effective dose at 3 mg/kg of less than 3 mg/kg and a minimal effective dose at 30 mg/kg of less than 30 mg/kg.
With `CCCc1nc(C(F)(F)F)c(C(=O)O)n1Cc1ccc(-c2ccccc2C(=O)O)cc1` [Example 265D], the IC50 on AII receptor (Table 26) stood at 1100 nM. Moreover, the minimal effective dose at 3 mg/kg with Renal Hypertensive Rats is less than 3 mg/kg.
Take `CCCCc1nc(Cl)c(-c2nnn[nH]2)n1Cc1ccc(-c2ccccc2-c2nnn[nH]2)cc1` [Example 344, 2-n-Butyl-4-chloro-5-(1H-tetrazol-5-yl)-1-[(2'-(1H-tetrazol-5-yl)biphenyl-4-yl)methyl]-imidazole]: at AII receptor (Table 26), the IC50 stood at 160 nM. Further, in the test with Renal Hypertensive Rats, the minimal effective dose at 3 mg/kg is less than 3 mg/kg and the minimal effective dose at 30 mg/kg is less than 30 mg/kg.
`CCCCc1nc(Cl)c(-c2[nH]nnc2C(=O)O)n1Cc1ccc(-c2ccccc2-c2nnn[nH]2)cc1` [Example 345, 2-n-Butyl-5-(4-carboxy-1,2,3-triazol-5-yl)-4-chloro-1-[(2'-(1H-tetrazol-5-yl)biphenyl-4-yl)methyl]imidazole]: at AII receptor (Table 26), the half-inhibitory concentration (IC50) was 1100 nM. Moreover, the minimal effective dose at 3 mg/kg in the test with Renal Hypertensive Rats was less than 3 mg/kg.
Take `CCCCc1nc(Cl)c(CNC(=O)Oc2ccccc2)n1Cc1ccc(-c2ccccc2C(=O)O)cc1` [Example 149]: on AII receptor (setting [1]), the IC50 came to 450 nM. Besides, in the test on Renal Hypertensive Rats (tested as sodium salt), the minimal effective dose at 10 mg/kg was less than 10 mg/kg and the minimal effective dose at 100 mg/kg is less than 100 mg/kg.
Take `CCCCc1nc(Cl)c(/C=C/COC(C)=O)n1Cc1ccc(NC(=O)c2ccccc2NS(=O)(=O)C(F)(F)F)cc1` [Example 232, 3-[1-(4-((N-Trifluoromethanesulfonyl)-anthranilamido)benzyl)-2-butyl-4-chloroimidazol-5-yl]-3-propen-1-ol acetate, E isomer]: the IC50 at AII receptor (Table 25) was found to be 510 nM. Besides, the minimal effective dose at 10 mg/kg with Renal Hypertensive Rats is less than 10 mg/kg.
Consider `CCCc1nc(C(F)(F)F)c(C=O)n1Cc1ccc(-c2ccccc2-c2nnn[nH]2)cc1` [Example 140C], for which the IC50 at AII receptor (Table 26) turned out to be 20 nM. In the test with Renal Hypertensive Rats, this molecule had a minimal effective dose at 3 mg/kg of less than 3 mg/kg and a minimal effective dose at 30 mg/kg of less than 30 mg/kg.
In the case of `CCCc1nc(Cl)c(C(=O)O)n1Cc1ccc(-c2ccccc2-c2nn[nH]n2)cc1` [Example 251A], at AII receptor (Table 26), the IC50 came to 45 nM. In the test with Renal Hypertensive Rats, this molecule came in with a minimal effective dose at 3 mg/kg of less than 3 mg/kg and a minimal effective dose at 30 mg/kg of less than 30 mg/kg.
Turning to `CCCCc1nc(Cl)c(CCC(C)=O)n1Cc1ccc(NC(=O)c2ccccc2C(=O)O)cc1` [Example 244], at AII receptor (Table 25), the IC50 is 88 nM. The minimal effective dose at 10 mg/kg in the test with Renal Hypertensive Rats was less than 10 mg/kg.
Turning to `CCCCc1nc(Cl)c(CO)n1Cc1ccc(-c2cccc(C(=O)OCOC(=O)C(C)(C)C)c2)cc1` [Example 88, 1-[(3'-Trimethylacetoxymethoxycarbonylbiphenyl-4-yl)methyl]-2-butyl-4-chloro-5-hydroxymethylimidazole], the half-maximal inhibitory concentration (IC50) on AII receptor (Table 25) came to 1300 nM. The minimal effective dose at 100 mg/kg in the test on Renal Hypertensive Rats is less than 100 mg/kg.
Take `CCC/C=C\c1nc(Cl)c(CO)n1Cc1ccc(-c2ccccc2C(=O)O)cc1` [Example 266, 1-[(2-Carboxybiphenyl-4-yl)-methyl]-4-chloro-5-hydroxymethyl-2-(cis-pent-1-en-1-yl)imidazole]: the half-maximal inhibitory concentration (IC50) at AII receptor (Table 25) came to 2300 nM. The same molecule showed a minimal effective dose at 10 mg/kg in the test on Renal Hypertensive Rats of less than 10 mg/kg.
On to `CCCCc1nc(C(F)(F)F)c(C(=O)O)n1Cc1ccc(-c2ccccc2-c2nn[nH]n2)cc1` [Example 240A], for which, at AII receptor (Table 26), the half-inhibitory concentration (IC50) came to 150 nM. Besides, in the test with Renal Hypertensive Rats, the minimal effective dose at 3 mg/kg was less than 3 mg/kg and the minimal effective dose at 30 mg/kg is less than 30 mg/kg.
Regarding `CCCc1nc(C(=O)O)c(C(=O)O)n1Cc1ccc(-c2ccccc2C(=O)O)cc1` [Example 328], on AII receptor (Table 26), the IC50 worked out at 6700 nM. In the test with Renal Hypertensive Rats, the minimal effective dose at 3 mg/kg was less than 3 mg/kg and the minimal effective dose at 30 mg/kg is less than 30 mg/kg.
Regarding `CCCCc1nc(Cl)c(CCCOC(C)=O)n1Cc1ccc(NC(=O)c2ccccc2NS(=O)(=O)C(F)(F)F)cc1` [Example 248], the IC50 at AII receptor (Table 25) came to 250 nM. In the test with Renal Hypertensive Rats, this molecule gave a minimal effective dose at 10 mg/kg of less than 10 mg/kg.
Regarding `CCCc1nc(Cl)c(C=O)n1Cc1ccc(-c2ccccc2-c2nnn[nH]2)cc1` [Example 114, 2-Propyl-4-chloro-1-[(2'-(1H-tetrazol-5-yl)biphenyl-4-yl)methyl]imidazole-5-carboxaldehyde], the IC50 on AII receptor (Table 25) was 50 nM. Also, in the test with Renal Hypertensive Rats, the minimal effective dose at 10 mg/kg is less than 10 mg/kg and the minimal effective dose at 100 mg/kg is less than 100 mg/kg.
For the molecule `CCCCc1nc(Cl)c(CNC(=O)OC(C)C)n1Cc1ccc(-c2ccccc2C(=O)O)cc1` [Example 152], on AII receptor (setting [1]), the IC50 amounted to 250 nM. In the test on Renal Hypertensive Rats (tested as sodium salt), the minimal effective dose at 10 mg/kg is less than 10 mg/kg and the minimal effective dose at 100 mg/kg is less than 100 mg/kg.
With `CCCCc1nc(CO)c(Cl)n1Cc1ccc(-c2ccccc2-c2nn[nH]n2)cc1` [Example 118], on AII receptor (Table 25), the 50% inhibitory concentration (IC50) came out at 89 nM. Further, in the test on Renal Hypertensive Rats, the minimal effective dose at 10 mg/kg is less than 10 mg/kg and the minimal effective dose at 100 mg/kg is less than 100 mg/kg.
On the same counts, the results for `CCCCc1ncc(C=O)n1Cc1ccc(-c2ccccc2C(=O)O)cc1` [Example 130] are 470 nM, less than 10 mg/kg and less than 100 mg/kg.
On the same counts, the results for `CCCCSc1ncc(CO)n1Cc1ccc(-c2ccccc2C(=O)O)cc1` [Example 123] are 5600 nM, less than 10 mg/kg and more than 100 mg/kg.
As to `CCCc1nc(C(F)(F)C(F)(F)F)c(CO)n1Cc1ccc(-c2ccccc2C(=O)O)cc1` [Example 124B], the IC50 at AII receptor (Table 26) stood at 50 nM. In the test on Renal Hypertensive Rats, this molecule displayed a minimal effective dose at 3 mg/kg of less than 3 mg/kg and a minimal effective dose at 30 mg/kg of less than 30 mg/kg.
Turning to `CCCCc1nc(CO)c(I)n1Cc1ccc(-c2ccccc2C(=O)O)cc1` [Example 105], the IC50 on AII receptor (Table 25) stood at 680 nM. In the test on Renal Hypertensive Rats, this molecule registered a minimal effective dose at 10 mg/kg of less than 10 mg/kg and a minimal effective dose at 100 mg/kg of less than 100 mg/kg.
Take `CCCCc1nc(Cl)c(C(=O)NC)n1Cc1ccc(-c2ccccc2C(=O)O)cc1` [Example 134]: the IC50 at AII receptor (Table 25) stood at 180 nM. In the test on Renal Hypertensive Rats, the minimal effective dose at 10 mg/kg is less than 10 mg/kg and the minimal effective dose at 100 mg/kg is less than 100 mg/kg.
The corresponding values for `CCCCc1nc(Cl)c(CCC(=O)OC)n1Cc1ccc(NC(=O)c2ccccc2C(=O)O)cc1` [Example 234, 3-[2-Butyl-4-chloro-1-(4-(2-carboxybenzamido)benzyl)imidazol-5-yl]-propanoic acid methyl ester] are 64 nM, less than 10 mg/kg and more than 100 mg/kg.
The corresponding values for `CCCCc1nc(Cl)c(CCCC(=O)O)n1Cc1ccc(-c2ccccc2C(=O)O)cc1` [Example 265] are 270 nM, less than 10 mg/kg and less than 100 mg/kg.
On to `CCCCCc1nc(Cl)c(CO)n1Cc1ccc(-c2ccccc2C(=O)O)cc1` [Example 109], for which the IC50 at AII receptor (Table 25) was determined as 980 nM. In the test on Renal Hypertensive Rats, this molecule came in with a minimal effective dose at 10 mg/kg of less than 10 mg/kg and a minimal effective dose at 100 mg/kg of less than 100 mg/kg.
The corresponding values for `CCCCc1nccn1Cc1ccc(NC(=O)c2ccccc2NS(=O)(=O)C(F)(F)F)cc1` [Example 59] are 3000 nM, more than 100 mg/kg and more than 100 mg/kg.
Regarding `CCCCc1nc(Cl)c(COC)n1Cc1ccc(-c2ccccc2-c2nnn[nH]2)cc1` [Example 90], the 50% inhibitory concentration (IC50) at AII receptor (setting [1]) came out at 20 nM. Besides, in the test with Renal Hypertensive Rats (tested as sodium salt), the minimal effective dose at 10 mg/kg is less than 10 mg/kg and the minimal effective dose at 100 mg/kg was less than 100 mg/kg.
On the same counts, the results for `CCCCc1nc(Cl)c(CNC(=O)NC(C)c2cccc3ccccc23)n1Cc1ccc(-c2ccccc2C(=O)O)cc1` (centres unmarked) [Example 171] are 600 nM, less than 10 mg/kg and more than 100 mg/kg.

Source of the values: US5138069A (E. I. Du Pont de Nemours and Company, priority 1988, dated 1992).
